Reference: PubChem BioAssay (NCI)
Several values for one entry are separate records, joined by “and”; a condition that tells them apart may be missing. Equal entries are not always repeated.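 Exposure lasted 48 hours, with cells grown in 96-well plates and compounds tested at five concentrations. GI50: concentration for 50% inhibition of growth. Definition used: TGI = concentration required for complete inhibition of growth.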

Assays:
Assay in all cases: NCI-60 cell line screen, 48 h
[1] = system: SN12C renal
[2] = system: 786-0 renal
[3] = system: TK-10 renal
[4] = system: HT29 colon
[5] = system: SF-295 CNS
[6] = system: NCI/ADR-RES ovarian
[7] = system: HOP-62 NSCLC
[8] = system: U251 CNS
[9] = system: MDA-MB-435
[10] = system: SK-OV-3 ovarian

Compound	GI50 [1]	TGI [1]	GI50 [2]	TGI [2]	GI50 [3]	TGI [3]	GI50 [4]	TGI [4]	GI50 [5]	TGI [5]	GI50 [6]	TGI [6]	GI50 [7]	TGI [7]	GI50 [8]	TGI [8]	GI50 [9]	TGI [9]	GI50 [10]	TGI [10]
CNC(=O)c1ccccc1Nc1nc(Nc2ccc3c(c2OC)CCC[C@H](N2CCN(CCO)CC2)C3)ncc1Cl	2.57 µM and 2.59 µM	13.3 µM and > 10 µM	1.48 µM and 1.44 µM	4.24 µM and 5.06 µM	2.97 µM and 0.656 µM	18.2 µM and > 10 µM	0.329 µM and 0.256 µM	10.5 µM and 1.27 µM	1.71 µM and 1.49 µM	3.79 µM and 3.42 µM	4.62 µM and 3.01 µM	17.9 µM and > 10 µM	2.84 µM and 2.77 µM	16.8 µM and > 10 µM	2.43 µM and 2.27 µM	13.3 µM and > 10 µM	1.33 µM and 0.901 µM	6.92 µM and > 10 µM	2.98 µM and 2.47 µM	14.4 µM and 9.23 µM
CCn1c(-c2nonc2N)nc2c(N3CCCC3)nccc21	15 µM	> 25 µM	> 18.6 µM	> 25 µM	9.31 µM	> 25 µM	7.97 µM	> 25 µM	9.27 µM	> 25 µM	10.7 µM	> 25 µM	12.3 µM	> 25 µM	9.43 µM	> 25 µM	12.2 µM	> 25 µM	> 24 µM	> 25 µM
N#Cc1cccc(N2C(=O)C3C4C=CC(C3C2=O)C2C(=O)N(c3cccc(C#N)c3)C(=O)C42)c1 (stereo not drawn)		> 39.8 µM		> 63.1 µM		50 µM		> 63.1 µM		36.7 µM		> 100 µM		38.1 µM		26.8 µM		> 100 µM		34.9 µM
Cc1ccc(C(=O)NC2CC2)cc1-c1ccc2[nH]ncc2c1	> 25 µM	> 25 µM	> 25 µM	> 25 µM	> 25 µM	> 25 µM	> 25 µM	> 25 µM	> 25 µM	> 25 µM	> 25 µM	> 25 µM	> 25 µM	> 25 µM	> 25 µM	> 25 µM	> 25 µM	> 25 µM	> 25 µM	> 25 µM
O=C1NC(c2ccccc2)C2(C(=O)O)CN(C3CC3)c3cc(N4CCNCC4)c(F)cc3C2N1 (stereo not drawn)	> 100 µM	> 100 µM	> 100 µM	> 100 µM	> 100 µM	> 100 µM	> 100 µM	> 100 µM	> 100 µM	> 100 µM	> 100 µM	> 100 µM	> 100 µM	> 100 µM	> 100 µM	> 100 µM	> 100 µM	> 100 µM	> 100 µM	> 100 µM
CN(N)c1nc(N)c(C#N)c(C#N)c1C#N		> 10 µM		> 10 µM		> 10 µM		> 10 µM		> 10 µM		> 10 µM		> 10 µM		> 10 µM		> 10 µM		> 10 µM
COc1ccc2nc3cc(Cl)ccc3c(Nc3cc(CN4CCCC4)c(O)c(CN4CCCC4)c3)c2n1	1.35 µM	10.8 µM	1.87 µM	11.4 µM	5.69 µM	66.3 µM	1.42 µM	10.5 µM	2 µM	6.51 µM	1.64 µM	6.51 µM	1.38 µM	4.91 µM	2.21 µM	11.5 µM	1.6 µM	3.07 µM	2.92 µM	15.5 µM
NC(Cc1ccccc1)c1nccs1 (stereo not drawn)		> 100 µM		> 100 µM		> 100 µM		> 100 µM		> 100 µM		> 100 µM		> 100 µM		> 100 µM		> 100 µM		> 100 µM
Cc1cc(O)c(-c2ccc([C@@H](C)CN(C)C)cc2)c2c1[nH]c(=O)c1sccc12	0.627 µM	20.7 µM	0.248 µM	5.43 µM	0.647 µM	5.87 µM	2.76 µM	7.81 µM	0.73 µM	6.07 µM	2.72 µM	24.1 µM	0.886 µM	5.57 µM	0.399 µM	17.4 µM	0.981 µM	15.2 µM	0.332 µM	3.65 µM
CC(C)(C)OC(=O)N[C@@H](Cc1ccccc1)C(=O)N(Cc1ccccc1)C1(C(=O)NCc2ccccc2)CCN(Cc2ccccc2)CC1	3.45 µM	> 100 µM	2.99 µM	43.3 µM	3.17 µM	70.3 µM	2.16 µM	6.82 µM	2.9 µM	> 100 µM	2.85 µM	46.9 µM	3.89 µM	> 100 µM	3.19 µM	> 100 µM	3.04 µM	> 100 µM	3 µM	> 100 µM
COC(=O)[C@H](Cc1cn(C)cn1)NC(=O)[C@H](Cc1ccccc1)NC(=O)Nc1cc(C(F)(F)F)cc(C(F)(F)F)c1	11.7 µM	24.6 µM	16.8 µM	31.9 µM			4.97 µM and 14.9 µM	29.8 µM	16.4 µM	31.5 µM	23.9 µM	61.4 µM	17.5 µM	31.9 µM	11.9 µM	24.6 µM	15.3 µM	29.4 µM	19.2 µM	33.3 µM
COc1ccc(-c2cc(=O)c3c(O)c(OC)c(OC)c(OC)c3o2)cc1		> 100 µM		> 100 µM		> 100 µM		> 100 µM		> 100 µM		> 100 µM		> 100 µM		> 100 µM		> 100 µM		> 100 µM
N#CC1=C(N)NC(=O)NC12Nc1ccccc1N2	> 100 µM	> 100 µM	> 100 µM	> 100 µM	> 100 µM	> 100 µM	> 100 µM	> 100 µM	> 100 µM	> 100 µM	> 100 µM	> 100 µM	> 100 µM	> 100 µM	> 100 µM	> 100 µM	> 100 µM	> 100 µM	> 100 µM	> 100 µM
N#Cc1cccc(C2C3=C(COC3=O)N(CCO)c3cc4c(cc32)OCO4)c1 (stereo not drawn)	3.81 µM	> 50 µM	2.04 µM	> 50 µM	15.4 µM	> 50 µM	1.49 µM	> 50 µM	1.17 µM	> 50 µM	3.46 µM	> 50 µM	2.1 µM	> 50 µM	2.3 µM	> 50 µM	0.154 µM	1.03 µM	2.08 µM	> 50 µM
